One test concerns the target PIK3CB (Human) (UniProt P42338). The test is described as follows: Enzyme Assay.
The next test deals with PIK3CG (human) (UniProt P48736). The experiment in a line: Enzyme Assay.
The next test concerns the target PIK3CD (Human) (UniProt O00329). The test is described as follows: Cell-Based Assay. To be noted: raji.
Another test concerns the target PIK3CA (human) (UniProt P42336). The test is described as follows: Enzyme Assay.

Some results are limits rather than exact numbers.

Sequence of PIK3CB (Human) (P42338 whole entry, looked up): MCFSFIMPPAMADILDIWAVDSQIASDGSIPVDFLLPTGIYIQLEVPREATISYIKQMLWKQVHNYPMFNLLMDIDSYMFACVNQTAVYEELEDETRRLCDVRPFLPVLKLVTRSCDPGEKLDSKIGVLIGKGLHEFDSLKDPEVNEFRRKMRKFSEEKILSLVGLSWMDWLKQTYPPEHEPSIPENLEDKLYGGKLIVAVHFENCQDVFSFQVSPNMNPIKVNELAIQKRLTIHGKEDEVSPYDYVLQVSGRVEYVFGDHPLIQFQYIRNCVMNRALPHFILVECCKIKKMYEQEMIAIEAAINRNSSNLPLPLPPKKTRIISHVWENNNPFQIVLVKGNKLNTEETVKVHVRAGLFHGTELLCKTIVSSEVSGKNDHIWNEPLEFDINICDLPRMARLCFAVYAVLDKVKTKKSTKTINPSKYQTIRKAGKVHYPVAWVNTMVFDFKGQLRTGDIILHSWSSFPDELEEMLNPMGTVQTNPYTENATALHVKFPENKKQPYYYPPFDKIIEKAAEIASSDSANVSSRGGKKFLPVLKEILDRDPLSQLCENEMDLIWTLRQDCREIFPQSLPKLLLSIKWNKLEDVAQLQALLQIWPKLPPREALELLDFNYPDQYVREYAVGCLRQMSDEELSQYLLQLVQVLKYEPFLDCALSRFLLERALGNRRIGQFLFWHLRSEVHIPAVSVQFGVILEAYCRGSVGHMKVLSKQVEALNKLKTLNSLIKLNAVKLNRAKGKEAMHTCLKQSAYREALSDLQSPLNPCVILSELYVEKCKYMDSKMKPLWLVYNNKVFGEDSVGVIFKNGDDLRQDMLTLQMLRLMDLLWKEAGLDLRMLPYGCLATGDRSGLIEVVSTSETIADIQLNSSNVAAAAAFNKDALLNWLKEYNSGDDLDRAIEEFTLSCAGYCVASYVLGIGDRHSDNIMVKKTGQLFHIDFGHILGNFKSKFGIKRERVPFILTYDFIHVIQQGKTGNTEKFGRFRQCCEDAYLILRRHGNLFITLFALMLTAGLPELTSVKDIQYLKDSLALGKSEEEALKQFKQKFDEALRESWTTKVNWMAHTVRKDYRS
Sequence of PIK3CG (human) (P48736 whole entry, looked up): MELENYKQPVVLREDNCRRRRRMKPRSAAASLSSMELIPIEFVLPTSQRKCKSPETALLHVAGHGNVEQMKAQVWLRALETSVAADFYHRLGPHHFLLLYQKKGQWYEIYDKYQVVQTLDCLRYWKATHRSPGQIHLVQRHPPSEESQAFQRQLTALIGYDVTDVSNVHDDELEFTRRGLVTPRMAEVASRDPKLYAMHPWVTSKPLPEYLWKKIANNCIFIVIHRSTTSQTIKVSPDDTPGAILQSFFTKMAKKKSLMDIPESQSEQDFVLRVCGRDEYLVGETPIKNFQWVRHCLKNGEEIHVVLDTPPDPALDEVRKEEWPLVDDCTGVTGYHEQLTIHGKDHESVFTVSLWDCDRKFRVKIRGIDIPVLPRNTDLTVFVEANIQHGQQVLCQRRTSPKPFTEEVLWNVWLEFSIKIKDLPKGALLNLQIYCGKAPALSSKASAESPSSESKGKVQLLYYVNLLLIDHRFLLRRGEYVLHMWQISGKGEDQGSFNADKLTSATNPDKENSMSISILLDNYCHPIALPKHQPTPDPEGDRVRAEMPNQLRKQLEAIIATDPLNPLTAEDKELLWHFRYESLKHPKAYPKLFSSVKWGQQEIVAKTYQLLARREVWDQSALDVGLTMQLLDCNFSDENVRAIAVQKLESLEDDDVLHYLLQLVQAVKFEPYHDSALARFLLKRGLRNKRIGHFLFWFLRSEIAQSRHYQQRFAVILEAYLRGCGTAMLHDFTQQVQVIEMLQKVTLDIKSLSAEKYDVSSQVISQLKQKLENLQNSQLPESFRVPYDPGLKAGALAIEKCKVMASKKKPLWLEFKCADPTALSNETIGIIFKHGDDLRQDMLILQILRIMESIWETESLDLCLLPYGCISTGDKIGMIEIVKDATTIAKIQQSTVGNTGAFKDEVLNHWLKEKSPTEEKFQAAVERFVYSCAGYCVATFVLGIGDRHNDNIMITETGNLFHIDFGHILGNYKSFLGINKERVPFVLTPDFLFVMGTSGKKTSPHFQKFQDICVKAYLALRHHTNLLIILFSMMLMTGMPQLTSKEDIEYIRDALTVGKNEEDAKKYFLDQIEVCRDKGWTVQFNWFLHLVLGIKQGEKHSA
Sequence of PIK3CA (human) (P42336 whole entry, looked up): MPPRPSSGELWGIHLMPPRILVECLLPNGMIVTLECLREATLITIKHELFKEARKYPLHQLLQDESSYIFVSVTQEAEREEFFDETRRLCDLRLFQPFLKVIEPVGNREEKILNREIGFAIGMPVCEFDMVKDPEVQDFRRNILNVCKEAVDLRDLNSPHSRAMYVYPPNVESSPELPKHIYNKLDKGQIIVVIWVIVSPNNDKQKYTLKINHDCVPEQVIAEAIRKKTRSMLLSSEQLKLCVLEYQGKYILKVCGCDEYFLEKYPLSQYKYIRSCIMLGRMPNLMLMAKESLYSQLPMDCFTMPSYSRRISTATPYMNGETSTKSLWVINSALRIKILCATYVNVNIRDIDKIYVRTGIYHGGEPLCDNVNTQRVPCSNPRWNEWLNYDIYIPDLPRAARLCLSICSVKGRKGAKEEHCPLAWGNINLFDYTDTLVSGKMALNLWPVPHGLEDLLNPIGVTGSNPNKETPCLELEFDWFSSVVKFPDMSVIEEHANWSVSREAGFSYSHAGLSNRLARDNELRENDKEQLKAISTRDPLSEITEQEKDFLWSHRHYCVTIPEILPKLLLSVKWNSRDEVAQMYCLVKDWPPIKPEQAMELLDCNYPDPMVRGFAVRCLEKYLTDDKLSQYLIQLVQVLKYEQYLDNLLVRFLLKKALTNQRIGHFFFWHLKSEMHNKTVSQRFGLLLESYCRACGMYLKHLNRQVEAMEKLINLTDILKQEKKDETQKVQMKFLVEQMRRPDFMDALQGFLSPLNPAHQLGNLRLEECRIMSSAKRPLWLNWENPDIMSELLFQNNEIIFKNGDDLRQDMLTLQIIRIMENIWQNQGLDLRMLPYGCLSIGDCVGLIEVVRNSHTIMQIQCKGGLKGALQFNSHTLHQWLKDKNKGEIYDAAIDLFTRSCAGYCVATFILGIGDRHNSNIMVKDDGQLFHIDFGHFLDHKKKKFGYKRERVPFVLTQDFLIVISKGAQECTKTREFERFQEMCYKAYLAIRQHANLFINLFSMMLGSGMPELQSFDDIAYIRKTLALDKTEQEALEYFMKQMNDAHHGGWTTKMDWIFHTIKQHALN
Sequence of PIK3CD (Human) (O00329 whole entry, looked up): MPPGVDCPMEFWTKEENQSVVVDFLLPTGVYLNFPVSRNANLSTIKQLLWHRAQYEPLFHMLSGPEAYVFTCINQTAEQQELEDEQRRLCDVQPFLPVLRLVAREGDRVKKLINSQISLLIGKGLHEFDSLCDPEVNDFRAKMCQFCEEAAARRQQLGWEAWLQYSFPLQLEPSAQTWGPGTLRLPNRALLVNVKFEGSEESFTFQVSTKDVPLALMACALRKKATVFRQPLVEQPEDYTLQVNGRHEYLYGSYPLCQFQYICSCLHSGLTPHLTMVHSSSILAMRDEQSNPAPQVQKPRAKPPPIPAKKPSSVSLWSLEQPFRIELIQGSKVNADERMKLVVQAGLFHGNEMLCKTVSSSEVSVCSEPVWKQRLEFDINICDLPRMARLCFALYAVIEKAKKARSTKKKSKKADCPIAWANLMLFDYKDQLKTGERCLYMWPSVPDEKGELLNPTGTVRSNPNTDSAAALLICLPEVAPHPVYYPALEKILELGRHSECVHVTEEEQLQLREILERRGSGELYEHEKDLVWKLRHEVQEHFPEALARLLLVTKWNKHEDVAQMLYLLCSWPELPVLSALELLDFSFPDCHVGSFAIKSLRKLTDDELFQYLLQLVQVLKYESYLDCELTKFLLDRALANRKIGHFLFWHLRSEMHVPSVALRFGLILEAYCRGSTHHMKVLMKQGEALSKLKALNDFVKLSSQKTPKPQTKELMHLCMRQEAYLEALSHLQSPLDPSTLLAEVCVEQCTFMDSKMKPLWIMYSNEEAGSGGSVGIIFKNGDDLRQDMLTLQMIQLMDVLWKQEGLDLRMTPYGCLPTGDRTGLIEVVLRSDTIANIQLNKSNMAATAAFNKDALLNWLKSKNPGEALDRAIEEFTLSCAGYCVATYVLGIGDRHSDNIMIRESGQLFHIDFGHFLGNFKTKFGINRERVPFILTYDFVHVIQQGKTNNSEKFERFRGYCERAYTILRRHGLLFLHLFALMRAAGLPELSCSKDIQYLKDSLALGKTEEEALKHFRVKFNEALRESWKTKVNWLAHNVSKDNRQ

Turning to `C[C@H](NC(=O)c1c(N)nn2cccnc12)c1cc2cccc(-c3ccccc3)c2c(=O)n1-c1ccccc1`, the IC50 against PIK3CB (Human) is no less than 10 µM; at PIK3CG (human), 0.1 to 1 µM; on PIK3CD (Human), 0.1 to 1 µM.
Consider `COc1cc(-c2cccc3cc([C@H](C)NC(=O)c4c(N)nn5cccnc45)n(-c4ccccc4)c(=O)c23)ccn1`, for which the IC50 at PIK3CG (human) was 0.1 to 1 µM; against PIK3CD (Human), less than 0.1 µM.
For `C[C@H](NC(=O)c1c(N)nn2cccnc12)c1cc2cccc(Cl)c2c(=O)n1-c1ccc(F)c(F)c1`, the IC50 against PIK3CG (human) is less than 0.1 µM; against PIK3CD (Human), 0.1 to 1 µM.
`Cc1cnc(N)c(C(=O)N[C@@H](C)c2cc3cccc(Cl)c3c(=O)n2-c2ccccc2)n1`: the IC50 is no less than 10 µM against PIK3CA (human) and 0.1 to 1 µM against PIK3CD (Human).
Consider `C[C@H](NC(=O)c1nc(-c2cccc(S(=O)(=O)N(C)C)c2)cnc1N)c1cc2cccc(Cl)c2c(=O)n1-c1ccccc1`, for which the IC50 was no less than 10 µM against PIK3CA (human) and 0.1 to 1 µM on PIK3CD (Human).
For the compound `Cc1cc(C)n2nc(N)c(C(=O)N[C@@H](C)c3cc4cccc(Cl)c4c(=O)n3-c3ccccc3)c2n1`, the IC50 against PIK3CB (Human) was 0.1 to 1 µM; on PIK3CG (human), 0.1 to 1 µM; against PIK3CD (Human) it was less than 0.1 µM.
Turning to `C[C@H](NC(=O)c1cncc2cccnc12)c1cc2cccc(C(F)(F)F)c2c(=O)n1-c1ccccc1`, at PIK3CD (Human), the IC50 is less than 0.1 µM.
As for `C[C@H](NC(=O)c1nc(-c2cccc(S(=O)(=O)N3CCCC3)c2)cnc1N)c1cc2cccc(Cl)c2c(=O)n1-c1ccccc1`, the IC50 at PIK3CA (human) is no less than 10 µM.
`C[C@H](NC(=O)c1cncc2cccnc12)c1cc2cccc(Cl)c2c(=O)n1-c1ccc(F)cc1` came in with an IC50 against PIK3CD (Human) of less than 0.1 µM.
Turning to `C[C@H](NC(=O)c1c(N)nn2cccnc12)c1cc2cccc(C#CCCNC(=O)[C@@H]3CCC(=O)O3)c2c(=O)n1-c1ccccc1`, the half-inhibitory concentration (IC50) against PIK3CB (Human) was no less than 10 µM; against PIK3CG (human), 0.1 to 1 µM; on PIK3CD (Human), less than 0.1 µM.
On to `CC(=O)Nc1cccc(-c2cccc3cc([C@H](C)NC(=O)c4c(N)nn5cccnc45)n(-c4ccccc4)c(=O)c23)c1`, for which the results for the IC50 against PIK3CB (Human), at PIK3CG (human) and against PIK3CD (Human) were no less than 10 µM, 0.1 to 1 µM and less than 0.1 µM, respectively.
With `C[C@H](NC(=O)c1c(N)nn2cccnc12)c1cc2cccc(Cl)c2c(=O)n1C1CCCCC1`, the IC50 on PIK3CD (Human) was less than 0.1 µM.
Regarding `C[C@H](NC(=O)c1c(N)nn2cccnc12)c1cc2cccc(C#CCNC(=O)C3CCCCC3)c2c(=O)n1-c1ccccc1`, the IC50 against PIK3CG (human) was 0.1 to 1 µM; on PIK3CD (Human), less than 0.1 µM.
In the case of `C[C@H](NC(=O)c1cnn2cccnc12)c1cc2cccc(Cl)c2c(=O)n1-c1ccc(F)cc1`, the IC50 against PIK3CG (human) and at PIK3CD (Human) was 0.1 to 1 µM throughout.
As for `C[C@H](NC(=O)c1c(N)nn2cccnc12)c1cc2cccc(-c3ccncc3)c2c(=O)n1-c1ccccc1`, the figures for the concentration for half-maximal inhibition (IC50) against PIK3CB (Human), against PIK3CG (human) and against PIK3CD (Human) were no less than 10 µM, 0.1 to 1 µM and less than 0.1 µM, respectively.
Regarding `C[C@H](NC(=O)c1nc(-c2cccc(S(C)(=O)=O)c2)cnc1N)c1cc2cccc(Cl)c2c(=O)n1-c1ccccc1`, the IC50 at PIK3CG (human) and against PIK3CD (Human) was 0.1 to 1 µM in each case.
As for `C[C@H](NC(=O)c1c(N)nn2cccnc12)c1cc2cccc(C#CCN)c2c(=O)n1-c1ccccc1`, the IC50 at PIK3CG (human) and against PIK3CD (Human) was 0.1 to 1 µM in each case.
For the compound `Cc1cccc2cc([C@H](C)NC(=O)c3c(N)nn4cccnc34)n(-c3ccccc3)c(=O)c12`, the IC50 at PIK3CG (human) is 0.1 to 1 µM; against PIK3CD (Human) it was less than 0.1 µM.
Take `C[C@H](NC(=O)c1nc(-c2cccc(S(N)(=O)=O)c2)cnc1N)c1cc2cccc(Cl)c2c(=O)n1-c1ccccc1`: the IC50 on PIK3CB (Human), at PIK3CG (human) and against PIK3CD (Human) was 0.1 to 1 µM throughout.
For `C[C@H](NC(=O)c1c(N)nn2cccnc12)c1cc2cccc(-c3ccn[nH]3)c2c(=O)n1-c1ccccc1`, the half-inhibitory concentration (IC50) against PIK3CB (Human) was no less than 10 µM; at PIK3CG (human) it was 0.1 to 1 µM; against PIK3CD (Human), 0.1 to 1 µM.
On to `CC(=O)Nc1ccc(-c2cccc3cc([C@H](C)NC(=O)c4c(N)nn5cccnc45)n(-c4ccccc4)c(=O)c23)cc1`, for which the figures for the IC50 against PIK3CB (Human), against PIK3CG (human) and against PIK3CD (Human) were no less than 10 µM, 0.1 to 1 µM and less than 0.1 µM, respectively.
For the compound `CC(C)n1c([C@H](C)NC(=O)c2c(N)nn3cccnc23)cc2cccc(Cl)c2c1=O`, the IC50 against PIK3CB (Human) is 0.1 to 1 µM; at PIK3CG (human), 0.1 to 1 µM; on PIK3CD (Human), less than 0.1 µM.
`C[C@H](NC(=O)c1c(N)nn2cccnc12)c1c(Br)c2cccc(F)c2c(=O)n1-c1ccccc1` yielded an IC50 against PIK3CG (human) of 0.1 to 1 µM.
With `COc1cc(-c2cccc3cc([C@H](C)NC(=O)c4c(N)nn5cccnc45)n(C)c(=O)c23)ccn1`, the IC50 is no less than 10 µM on PIK3CB (Human) and less than 0.1 µM on PIK3CD (Human).
`C[C@H](NC(=O)c1c(N)nn2cccnc12)c1cc2cccc(C#CCNS(C)(=O)=O)c2c(=O)n1-c1ccccc1`: the IC50 on PIK3CG (human) and at PIK3CD (Human) was 0.1 to 1 µM in each case.
Take `COc1ccc(-c2cnc(N)c(C(=O)N[C@@H](C)c3cc4cccc(Cl)c4c(=O)n3-c3ccccc3)n2)cc1OC`: the half-inhibitory concentration (IC50) on PIK3CG (human) and against PIK3CD (Human) was 0.1 to 1 µM throughout.
Turning to `C[C@H](NC(=O)c1nc(-c2cccc(NS(C)(=O)=O)c2)cnc1N)c1cc2cccc(Cl)c2c(=O)n1C1CC1`, the IC50 is 0.1 to 1 µM against PIK3CB (Human), less than 0.1 µM against PIK3CG (human) and less than 0.1 µM on PIK3CD (Human).

Source of the values: the Kinase Knowledgebase extract (Sharma et al. 2016).
